24 molecules from patent US10526327B2, “Histone demethylase inhibitors” (CELGENE QUANTICEL RESEARCH, INC., priority 2013, dated 2020) can be followed below.

The subject of one assay is KDM5A/B. The assay can be described thus: In vitro cell-based assay: immuno-blot quantification of tri-methyl H3K4 in ZR-75-1 breast cancer cells. Conditions: 72 hours, tri-methyl H3K4 level relative to GAPDH, percent of DMSO, read-out: Cellular IC50. An excerpt:
An assay to measure the degree of cellular inhibition of KDM5A and 5B was developed. This quantitative immuno-blotting assay measures the amount tri-methylated histone H3 at amino acid Lysine number 4, a specific substrate […] of the direct enzymatic activity of the histone demethylases KDM5A and KDM5B from extracts of the ZR-75-1 breast cancer cell line.
This assay is a fluorometric immunoassay for the quantification of tri-methyl H3K4 extracted from cells treated with test compound and is used as a measure of the cellular inhibition of KDM5A/B.
ZR-75-1 (PTEN null, ER+) breast cancer cells numbering 50,000 (ATCC) were seeded into each well of a 96-well tissue culture treated plate and then exposed to an 11 point dilution of test compound with final concentration ranges of test compound ranging from 1250 μM to 10 nM. Cells were left in the presence of test compound for 72 hours. Extracts were prepared containing all of the cellular histone material using detergent based lysis and sonication methods. These lysates were subsequently normalized for total protein content using a colorimetric bicinchonic acid assay (MicroBCA Pierce/Thermo Scientific). Normalized cell extracts were then subjected to typical immuno-blotting procedures using NuPage reagents (Life Technologies). Electrophoretically separated histones were then transferred and immobilized using polyvinylidene difluoride membrane (Immobilon-FL Millipore). The amount of tri-methylated lysine 4 of histone H3 was detected using an antibody specific to the tri-methylated state (Cell Signaling Technologies) and quantified on an infrared imager using a densitometry software package (Odyssey CLx, Image Studio, Li-Cor). This background subtracted densitometry value was reported as a ration of the GAPDH amount for that sample and then calculated as a percent of the DMSO treated sample. The software package XL-fit (IDBS) was then used to calculate a relative IC50 value for the dilution series of a given test compound according to the equation: fit=(D+((Vmax*(x^n))/((x^n)+(Km^n)))).

For another assay, the target named is T1, Jarid1A (Homo sapiens, UniProt P29375).
T1 construct: purchased BPS Bioscience 50110
T1 sequence (P29375 1-1090): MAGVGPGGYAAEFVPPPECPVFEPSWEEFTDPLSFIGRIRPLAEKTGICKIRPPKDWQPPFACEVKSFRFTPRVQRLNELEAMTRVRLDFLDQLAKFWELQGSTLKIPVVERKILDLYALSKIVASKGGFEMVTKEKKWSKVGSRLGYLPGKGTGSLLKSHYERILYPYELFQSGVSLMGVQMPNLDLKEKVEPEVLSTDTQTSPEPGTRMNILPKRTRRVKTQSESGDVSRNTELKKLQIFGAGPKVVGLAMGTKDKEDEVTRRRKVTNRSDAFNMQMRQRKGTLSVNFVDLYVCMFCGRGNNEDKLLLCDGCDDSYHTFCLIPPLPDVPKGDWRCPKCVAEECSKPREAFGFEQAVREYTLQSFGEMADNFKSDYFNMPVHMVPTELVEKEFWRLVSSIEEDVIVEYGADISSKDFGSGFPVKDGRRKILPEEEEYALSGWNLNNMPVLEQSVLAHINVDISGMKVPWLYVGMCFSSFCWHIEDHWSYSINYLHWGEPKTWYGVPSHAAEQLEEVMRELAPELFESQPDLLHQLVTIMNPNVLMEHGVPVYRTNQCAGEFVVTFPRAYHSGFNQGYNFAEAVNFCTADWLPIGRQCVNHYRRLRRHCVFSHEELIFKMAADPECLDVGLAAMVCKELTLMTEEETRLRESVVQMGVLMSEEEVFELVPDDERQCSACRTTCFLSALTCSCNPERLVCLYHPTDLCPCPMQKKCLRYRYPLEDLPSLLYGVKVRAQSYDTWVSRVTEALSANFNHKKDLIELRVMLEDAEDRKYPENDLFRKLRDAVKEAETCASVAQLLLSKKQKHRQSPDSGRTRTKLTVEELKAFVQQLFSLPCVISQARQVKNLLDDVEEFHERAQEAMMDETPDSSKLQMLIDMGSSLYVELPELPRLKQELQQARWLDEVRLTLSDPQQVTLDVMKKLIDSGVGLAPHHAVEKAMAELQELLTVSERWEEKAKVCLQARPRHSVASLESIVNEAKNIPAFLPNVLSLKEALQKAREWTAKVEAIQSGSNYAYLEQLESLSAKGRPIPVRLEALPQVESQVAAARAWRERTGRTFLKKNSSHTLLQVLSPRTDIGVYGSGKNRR
The assay can be described thus: Jarid1A in vitro enzyme inhibition assay (TR-FRET). It is filed as biochemical. An excerpt: This assay determines the ability of a test compound to inhibit Jarid1A, Jarid1B, and JMJD2C demethylase activity. Baculovirus expressed Jarid1A (GenBank Accession #NM_001042603, AA1-1090) was purchased from BPS Bioscience (Cat#50110). Baculovirus expressed Jarid1B (GenBank Accession #NM_006618, AA 2-751) was purchased from BPS Bioscience (Cat #50121) or custom made by MolecularThroughput. Baculovirus expressed JMJD2C (GenBank Accession #BC143571, AA 2-372) was purchased from BPS Bioscience (Cat#50105).
The enzymatic assay of Jarid1A activity is based upon Time Resolved-Fluorescence Resonance Energy Transfer (TR-FRET) detection. The ability of test compounds to inhibit the activity of Jarid1A was determined in 384-well plate format under the following reaction conditions: 1 nM Jarid1A, 300 nM H3K4me3-biotin labeled peptide (Anaspec cat #64357), 2 μM alpha-ketoglutaric acid in assay buffer of 50 mM HEPES, pH7.3, 0.005% Brij35, 0.5 mM TCEP, 0.2 mg/ml BSA, 50 μM sodium L-ascorbate, and 2 μM ammonium iron(II) sulfate. Reaction product was determined quantitatively by TR-FRET after the addition of detection reagent Phycolink Streptavidin-allophycocyanin (Prozyme) and Europium-anti-mono-or di-methylated histone H3 lysine 4 (H3K4me1-2) antibody (PerkinElmer) in the presence of 5 mM EDTA in LANCE detection buffer (PerkinElmer) at a final concentration of 25 nM and 1 nM, respectively.
The assay reaction was initiated by the following: 2 μl of the mixture of 900 nM H3K4me3-biotin labeled peptide and 6 μM alpha-ketoglutaric acid with 2 μl of 11-point serial diluted inhibitor in 3% DMSO was added to each well of plate, followed by the addition of 2 μl of 3 nM Jarid1A to initiate the reaction. The reaction mixture was incubated at room temperature for 30 minutes, and terminated by the addition of 6 μl of 5 mM EDTA in LANCE detection buffer containing 50 nM Phycolink Streptavidin-allophycocyanin and 2 nM Europium-anti-H3K4me1-2 antibody. Plates were read by EnVisionMultilabel Reader in TR-FRET mode (excitation at 320 nm, emission at 615 nm and 665 nm) after 1 hour incubation at room temperature. A ratio was calculated (665/615) for each well and fitted to determine inhibition constant (IC50).

The IC50 is the midpoint of a concentration-inhibition curve. As to `Oc1nc(OCc2ccccc2)nc2cnccc12` [Example 4, 2-phenylmethoxypyrido[3,4-d]pyrimidin-4-ol], the IC50 with KDM5A/B was in the range of 1 to 10 µM; against Jarid1A it was 100 to 1000 nM.
The matching figures for `Oc1nc(OCC2CC2)nc2cnccc12` [Example 5, 2-(cyclopropylmethoxy)-3H-pyrido[3,4-d]pyrimidin-4-one]: above 10 µM and at most 100 nM.
The like results for `CCCOc1nc(O)c2ccncc2n1` [Example 7, 2-propoxy-3H-pyrido[3,4-d]pyrimidin-4-one] were, in that order, above 10 µM and at most 100 nM.
The like results for `Oc1nc(OCCOc2ccccc2)nc2cnccc12` [Example 10, 2-(2-phenoxyethoxy)-3H-pyrido[3,4-d]pyrimidin-4-one] were, in that order, above 10 µM and at most 100 nM.
Consider `Oc1nc(OCC2CCC2)nc2cnccc12` [Example 11, 2-(cyclobutylmethoxy)-3H-pyrido[3,4-d]pyrimidin-4-one], for which the values for the IC50 in the assay with KDM5A/B and at Jarid1A were above 10 µM and 100 to 1000 nM, respectively.
The like results for `Oc1nc(OCC(F)(F)F)nc2cnccc12` [Example 12, 2-(2,2,2-trifluoroethoxy)pyrido[3,4-d]pyrimidin-4-ol] were, in that order, above 10 µM and at most 100 nM.
In the case of `CC(=O)Nc1ccc(Oc2nc(O)c3ccncc3n2)cc1` [Example 35, N-[4-(4-hydroxypyrido[3,4-d]pyrimidin-2-yl)oxyphenyl]acetamide], the IC50 was 1 to 10 µM in the assay with KDM5A/B and at most 100 nM against Jarid1A.
The like results for `Oc1nc(Oc2ccc(F)c(F)c2)nc2cnccc12` [Example 37, 2-(3,4-difluorophenoxy)pyrido[3,4-d]pyrimidin-4-ol] were, in that order, above 10 µM and at most 100 nM.
As for `Oc1nc(Oc2cccc(F)c2)nc2cnccc12` [Example 40, 2-(3-fluorophenoxy)pyrido[3,4-d]pyrimidin-4-ol], the IC50 with KDM5A/B was above 10 µM; at Jarid1A it was at most 100 nM.
In turn, `O=C(C1CC1)N1CCC(n2cc(Oc3nc(O)c4ccncc4n3)cn2)CC1` [Example 92, cyclopropyl-[4-[4-(4-hydroxypyrido[3,4-d]pyrimidin-2-yl)oxypyrazol-1-yl]piperidin-1-yl]methanone] yielded an IC50 against Jarid1A of at most 100 nM.
`O=C(c1ccc(F)cc1)N1CCC(n2cc(Oc3nc(O)c4ccncc4n3)cn2)CC1` [Example 93, (4-fluorophenyl)-[4-[4-(4-hydroxypyrido[3,4-d]pyrimidin-2-yl)oxypyrazol-1-yl]piperidin-1-yl]methanone] registered an IC50 at Jarid1A of at most 100 nM.
Still for that read-out and setting: next, `O=S(=O)(C1CC1)N1CCC(n2cc(Oc3nc(O)c4ccncc4n3)cn2)CC1` [Example 94, 2-[1-(1-cyclopropylsulfonylpiperidin-4-yl)pyrazol-4-yl]oxypyrido[3,4-d]pyrimidin-4-ol]: at most 100 nM; `O=S(=O)(c1ccccc1)N1CCC(n2cc(Oc3nc(O)c4ccncc4n3)cn2)CC1` [Example 95, 2-[1-[1-(benzenesulfonyl)piperidin-4-yl]pyrazol-4-yl]oxypyrido[3,4-d]pyrimidin-4-ol]: at most 100 nM; `Oc1nc(Oc2ccnc(N3CCNCC3)c2)nc2cnccc12` [Example 96, 2-(2-piperazin-1-ylpyridin-4-yl)oxypyrido[3,4-d]pyrimidin-4-ol]: at most 100 nM.
The same measure, in the same setting: under `Oc1nc(Oc2ccnc(N3CCOCC3)c2)nc2cnccc12` [Example 97, 2-(2-morpholin-4-ylpyridin-4-yl)oxypyrido[3,4-d]pyrimidin-4-ol] stands at most 100 nM.
Still for that read-out and setting: under `Cn1cnc(-c2nccc3c(O)nc(OCC(C)(C)O)nc23)c1` [Example 98, 2-(2-hydroxy-2-methylpropoxy)-8-(1-methylimidazol-4-yl)pyrido[3,4-d]pyrimidin-4-ol] stands 100 to 1000 nM.
Regarding `CC(c1ccccc1)n1cc(Oc2nc(O)c3ccncc3n2)cn1` (stereo not drawn) [Example 99], at Jarid1A, the IC50 is at most 100 nM.
Same read-out and setting: next, `Cn1cnc(-c2nccc3c(O)nc(Oc4cnn(C5CCOCC5)c4)nc23)c1` [Example 100, 8-(1-methylimidazol-4-yl)-2-[1-(oxan-4-yl)pyrazol-4-yl]oxypyrido[3,4-d]pyrimidin-4-ol]: at most 100 nM; `Cn1cnc(-c2nccc3c(O)nc(OCc4ccccc4)nc23)c1` [Example 101, 8-(1-methylimidazol-4-yl)-2-phenylmethoxypyrido[3,4-d]pyrimidin-4-ol]: at most 100 nM; `Cn1cnc(-c2nccc3c(O)nc(OCC4CCOCC4)nc23)c1` [Example 102, 8-(1-methyl-1H-imidazol-4-yl)-2-(oxan-4-ylmethoxy)pyrido[3,4-d]pyrimidin-4-ol]: 100 to 1000 nM.
Same read-out and setting: under `Cn1cnc(-c2nccc3c(O)nc(OCC4CCOC4)nc23)c1` (stereo not drawn) [Example 103, 8-(1-methyl-1H-imidazol-4-yl)-2-(oxolan-3-ylmethoxy)pyrido[3,4-d]pyrimidin-4-ol] stands 100 to 1000 nM.
Still for that read-out and setting: under `Cn1cnc(-c2nccc3c(O)nc(OCc4cccc(F)c4)nc23)c1` [Example 104, 2-[(3-fluorophenyl)methoxy]-8-(1-methyl-1H-imidazol-4-yl)pyrido[3,4-d]pyrimidin-4-ol] stands 100 to 1000 nM.
`Cn1cnc(-c2nccc3c(O)nc(OCc4ccccc4Cl)nc23)c1` [Example 105, 2-[(2-chlorophenyl)methoxy]-8-(1-methyl-1H-imidazol-4-yl)pyrido[3,4-d]pyrimidin-4-ol] returned an IC50 against Jarid1A of 1000 to 10000 nM.
`Cn1cnc(-c2nccc3c(O)nc(OCc4cccc(Cl)c4Cl)nc23)c1` [Example 106, 2-[(2,3-dichlorophenyl)methoxy]-8-(1-methyl-1H-imidazol-4-yl)pyrido[3,4-d]pyrimidin-4-ol]: the IC50 against Jarid1A was 1000 to 10000 nM.
